Data: patent US9132084B2, “Methods for administration and formulations for the treatment of regional adipose tissue” (NEOTHETICS, INC., priority 2009, dated 2015)

Tests used:
[1] = test system: abdominal subcutaneous adipose tissue
Text: To evaluate in a single masked, placebo-controlled design, the safety and exploratory efficacy measures of subcutaneous injections of three different doses of the combination of salmeterol xinafoate (SX) and fluticasone propionate (FP) administered by subcutaneous injection 1 or 2 times per week for 4 weeks to subjects with measurable abdominal subcutaneous adipose tissue.
A single-masked, placebo-controlled multiple-dose study of the safety and efficacy of three different doses of the combination of salmeterol xinafoate (SX) and fluticasone propionate (FP) administered by subcutaneous injection 1 or 2 times per week for 4 weeks in 60 subjects with measurable abdominal subcutaneous adipose tissue.
A 400 μg/mL sterile, preservative-free, clear, aqueous solution for injection of SX is contained in a 5 mL single-use glass vial. Each 5 mL single-use glass vial contains 2.6 mL of SX solution (400 μg/mL) which is stored frozen (−15° C. or below) and protected from light until dose preparation. A 25 mg/mL sterile, preservative free, clear, aqueous solution for injection of FP is contained in a 2 mL single-use glass vial. […]
Measurements of waist were taken at specified time points. […] The full waist circumference, and the right and the left hemi-circumferences were recorded.

[2] = Phase 1 open-label pharmacokinetics and safety of SX and FP co-administered subcutaneously in healthy volunteers; conditions: 52 μg salmeterol xinafoate with 22 μg fluticasone propionate SC once per week for 4 weeks
Experimental: Part III: An open-label, multiple-dose pharmacokinetic study of the selected SX+FP combined dose administered subcutaneously either 1 time per week for 4 weeks or 3 times per week for 4 weeks in twelve (12) healthy volunteers.
A 400 μg/mL sterile, preservative-free, clear, aqueous solution for injection of SX is contained in a 5 mL single-use glass vial. Each 5 mL single-use glass vial contains 2.6 mL of SX solution (400 μg/mL) which is stored frozen (−15° C. to −25° C.) and protected from light until dose preparation. A 25 mg/mL sterile, preservative free, clear, aqueous solution for injection of FP is contained in a 2 mL single-use glass vial. Each 2 mL single-use glass vial contains 1.0 mL of FP solution (25 μg/mL) which is stored frozen (−15° C. to −25° C.) and protected from light until dose preparation. Diluent: A sterile, preservative free, clear, aqueous solution of 20% PEG 400, 1% polysorbate 80, and sterile water for injection contained in a 10 mL single-use glass vial. Each 10 mL single-use glass vial contains 5.0 mL of diluent solution which should be stored at room temperature (15° C. to 25° C.). Prior to administration, the drug products are thawed, mixed, and if necessary diluted with sterile diluent to provide the target concentrations for dose administration. […]

[3] = test system: abdominal subcutaneous adipose tissue; test: Phase 2 double-masked evaluation of safety and efficacy of SX and FP subcutaneous injection; conditions: total weekly SX/FP dose of 11 μg/22 μg
Text: A Phase 2 study to examine the potential of selected doses of salmeterol xinafoate (SX) and fluticasone propionate (FP) co-administered to reduce abdominal subcutaneous adipose tissue, which is an interim surrogate to guide studies in subjects with symptomatic exophthalmos associated with thyroid-related eye disease (TED). The study also evaluated the safety and efficacy of subcutaneous injections of salmeterol xinafoate (SX) and fluticasone propionate (FP) for the reduction of abdominal (peri- and infra-umbilical) adiposity. The study compared the efficacy and safety of salmeterol xinafoate (SX) and fluticasone propionate (FP) at 1.0 μg FP and 0.05 μg SX once weekly to 1 mL placebo once weekly for 8 weeks for the reduction of measurable, abdominal subcutaneous adipose tissue. Additionally, the study evaluated in a double-masked, placebo-controlled design, the pharmacokinetics following multiple injected doses of salmeterol xinafoate (SX) and fluticasone propionate (FP) once weekly for 8 weeks. […]
All injections were performed in an outpatient setting. […] Once the study was completed and unmasked, only the serum samples collected from subjects receiving the higher combination dose were analyzed.

[4] = versus albuterol, a short-acting hydrophilic beta-adrenergic agonist; cited from earlier work
[5] = Plasma pharmacokinetics following single intravenous and subcutaneous injections of salmeterol xinafoate; conditions: for AUC(0-inf): AUCinf; for half-life: t1/2
Experimental: Salmeterol xinafoate was formulated in 5% PEG-400 in 0.9% saline, USP, at concentrations of 0.1, 1, 10, and 100 μg/mL. 1 male and 1 female non-naive Gottingen minipigs (18.4 to 19.5 kg at the time of the IV dose) were utilized. The animals were housed individually.
Each minipig received a single IV injection followed by SC doses of the salmeterol formulation. The IV dose was administered by slow bolus (1 minute; 0.0167 hr) into the marginal ear vein, whereas the first SC dose was administered as a bolus injection along the back (neck-region) where there was a longitudinal fat depot. The second SC dose was distributed in 5 separate SC injection sites. The fourth, fifth, and sixth administrations were SC administrations divided over 5 injection sits of different graded concentrations (0.1, 1, and 10 μg/mL of salmeterol in 5% PEG). Each dose was separated by at least a 3-day washout period. Blood samples (approximately 4 mL) were collected via the branchiocephalic plexus at pre-dose and at 2.00, 5.00, 10.0, 20.0, 30.0 and 45.0 minutes, and at 1.00, 2.00, 4.00, 8.00 and 24.0 hr post-dose. Blood samples were placed in tubes containing K2-EDTA as the anticoagulant. Samples were processed to plasma by centrifugation and stored frozen at approximately −70° C. (+/−15° C.) until shipment for analysis.
Plasma samples were analyzed for salmeterol using a qualified liquid chromatography/mass spectrometry/mass mass spectrometry (LC/MS/MS) method. The lower limit of quantitation (LLOQ) was 2.50 pg/mL. Samples were analyzed within a maximum of 14.0 days of collection.
Non-compartmental pharmacokinetic parameters were calculated using WinNonlin 5.2 software, NCA model 202, IV infusion input for the IV data and NCA model 200, extravascular input for the SC data. Individual plasma concentrations for each animal were used in the calculation of pharmacokinetic parameters. Nominal collection times and doses were used in the calculations. The area under the plasma concentration-time curve (AUC) was calculated using linear trapezoidal approximation (linear/log interpolation). Concentration values below the assay limit of quantitation were set to zero for calculations. The maximum plasma concentration (Cmax) and the time of its occurrence (Tmax) were verified by inspection. The half-life (t1/2) values were calculated using the last 3 plasma concentrations with nonzero values, if data permitted.

[6] = female, Gottingen, minipig, in vivo, iv, 4 ug/kg
[7] = female, Gottingen, minipig, in vivo, sc, 0.4 ug/kg
[8] = female, Gottingen, minipig, in vivo, sc, 4 ug/kg
[9] = male, Gottingen, minipig, in vivo, iv, 4 ug/kg
[10] = male, Gottingen, minipig, in vivo, sc, 0.4 ug/kg
[11] = male, Gottingen, minipig, in vivo, sc, 4 ug/kg

## OCc1cc(C(O)CNCCCCCCOCCCCc2ccccc2)ccc1O (stereo not drawn) [salmeterol xinafoate]
[1]; human clinical trial, FIGS. 3B and 7B
  efficacy of once per week versus twice per week dosing: more efficacious than twice per week dosing
[1]; lowest dose 0.5 μg salmeterol xinafoate once per week for 4 weeks, with fluticasone, versus higher weekly doses
  dose-therapeutic efficacy response (change in waist circumference): greatest therapeutic efficacy

## fluticasone propionate
[2]
  Cmax and AUC at day 22 compared to day 1: increase
[3]
  plasma levels relative to 505(b)(2) reference levels produced by an FDA-approved drug: ⅓-⅕

## OCc1cc(C(O)CNCCCCCCOCCCCc2ccccc2)ccc1O (racemic) [Salmeterol, ±2-(hydroxymethyl)-4-[1-hydroxy-2-[6-(4-phenylbutoxy)hexylamino]ethyl]-phenol]
[4]
  lipophilicity relative to albuterol: at least 10,000 times
[5]; SC5 (5 sites) 4 μg/kg, male 1-0771
  Tmax: 5 min
[5]; both, Gottingen, minipig, in vivo
  salmeterol partition ratio (plasma Cmax ratio of subcutaneous to intravenous administration): 0.1
[5]; female, Gottingen, minipig, in vivo
  concentration at 0.0833 hr: 0.485 ng/mL
[5]; female, Gottingen, minipig, in vivo, 0.4 ug/kg, F (bioavailability)
  bioavailability: 112%
[5]; female, Gottingen, minipig, in vivo, 0.04 mg/kg
  concentration at 0.0833 hr: 0.00317 ng/mL
[5]; female, Gottingen, minipig, in vivo, iv
  concentration at 0.0833 hr: 1.3 ng/mL
[5]; [6]
  Vd: 22.1 L/kg
  clearance: 45.5 mL/min/kg
  AUC(0-inf): 1.47 ng·h/mL
  half-life: 571 min
[5]; female, Gottingen, minipig, in vivo, iv, 4 ug/kg, Cmax
  Cmax: 4.95 ng/mL
[5]; female, Gottingen, minipig, in vivo, iv, 4 ug/kg, Tmax
  Tmax: 2 min
[5]; female, Gottingen, minipig, in vivo, sc
  concentration at 0.0833 hr: 0.227 ng/mL
[5]; female, Gottingen, minipig, in vivo, sc, 0.004 ug/kg, Cmax
  Cmax: 0.00308 ng/mL
[5]; female, Gottingen, minipig, in vivo, sc, 0.004 ug/kg, Tmax
  Tmax: 60 min
[5]; female, Gottingen, minipig, in vivo, sc, 0.04 ug/kg, Cmax
  Cmax: 0.00831 ng/mL
[5]; female, Gottingen, minipig, in vivo, sc, 0.04 ug/kg, Tmax
  Tmax: 2 min
[5]; [7]
  F (bioavailability): 1.12
  AUC(0-inf): 0.164 ng·h/mL
  half-life: 173 min
[5]; female, Gottingen, minipig, in vivo, sc, 0.4 ug/kg, Cmax
  Cmax: 0.113 ng/mL
[5]; female, Gottingen, minipig, in vivo, sc, 0.4 ug/kg, Tmax
  Tmax: 2 min
[5]; [8]
  AUCinf: 2010 pg·h/mL
  Cmax: 0.626 ng/mL
  F (bioavailability): 1.37
  t1/2: 8.58 h
  AUC(0-inf): 1.85 ng·h/mL
  half-life: 361 min
[5]; female, Gottingen, minipig, in vivo, sc, 4 ug/kg, Cmax
  Cmax: 0.403 ng/mL
[5]; female, Gottingen, minipig, in vivo, sc, 4 ug/kg, F (bioavailability)
  bioavailability: 126%
[5]; female, Gottingen, minipig, in vivo, sc, 4 ug/kg, bioavailability
  bioavailability: 126 to 137%
[5]; male, Gottingen, minipig, in vivo
  concentration at 0.0833 hr: 0.681 ng/mL
[5]; male, Gottingen, minipig, in vivo, 0.4 ug/kg, F (bioavailability)
  bioavailability: 78.9%
[5]; male, Gottingen, minipig, in vivo, 0.04 mg/kg
  concentration at 0.0833 hr: 0.00277 ng/mL
[5]; male, Gottingen, minipig, in vivo, iv
  concentration at 0.0833 hr: 1.38 ng/mL
[5]; [9]
  Vd: 17.1 L/kg
  clearance: 38 mL/min/kg
  AUC(0-inf): 1.75 ng·h/mL
  half-life: 473 min
[5]; male, Gottingen, minipig, in vivo, iv, 4 ug/kg, Cmax
  Cmax: 4.29 ng/mL
[5]; male, Gottingen, minipig, in vivo, iv, 4 ug/kg, Tmax
  Tmax: 2 min
[5]; male, Gottingen, minipig, in vivo, sc
  concentration at 0.0833 hr: 0.575 ng/mL
[5]; male, Gottingen, minipig, in vivo, sc, 0.04 ug/kg
  Tmax: 5 min
[5]; male, Gottingen, minipig, in vivo, sc, 0.04 ug/kg, Cmax
  Cmax: 0.00277 ng/mL
[5]; [10]
  F (bioavailability): 0.789
  Tmax: 5 min
  AUC(0-inf): 0.138 ng·h/mL
  half-life: 176 min
[5]; male, Gottingen, minipig, in vivo, sc, 0.4 ug/kg, Cmax
  Cmax: 0.0645 ng/mL
[5]; [11]
  AUCinf: 1510 pg·h/mL
  Cmax: 0.681 ng/mL
  F (bioavailability): 0.863
  Tmax: 5 min
  t1/2: 6.84 h
  AUC(0-inf): 1.29 ng·h/mL
  half-life: 355 min
[5]; male, Gottingen, minipig, in vivo, sc, 4 ug/kg, Cmax
  Cmax: 0.575 ng/mL
[5]; male, Gottingen, minipig, in vivo, sc, 4 ug/kg, F (bioavailability)
  bioavailability: 73.7%
[5]; male, Gottingen, minipig, in vivo, sc, 4 ug/kg, bioavailability
  bioavailability: 73.7 to 86.3%
[5]; minipig, in vivo
  partition ratio relative to the partition ratio of formoterol: about five times lower
[5]; minipig, in vivo, 0.004 ug/kg
  Cmax: 0 ng/mL
